Assay in all cases: inhibition of tumour cell growth, NCI panel, 48 h
For test [1], the system named is A549 NSCLC.
Test [2] concerns CAKI-1 renal.
For test [3], the system named is HCT-116 colon.
Test [4] concerns HS 578T breast.
Test [5] has as its system K-562 leukemia.
For test [6], the system named is RXF 393 renal.
The test system of test [7] is SF-268 CNS.
The test system of test [8] is SNB-75 CNS.
Test [9] concerns SR leukemia.
Test [10] concerns MDA-MB-231 breast.

Each structure is given as a SMILES string. Where “and” joins values, the source holds several entries; their conditions need not be identical. Identical values can stand only once.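 Each compound was tested at five concentrations against cells in 96-well plates for 48 hours. GI50 is the concentration that inhibits growth by half. TGI: concentration producing complete growth inhibition.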 Where a SMILES comes first, the peptide text is derived from it. [ ]: non-standard residue; d: D form. The star is where a group is joined. ξ: configuration not given here. dIva = CC[C@@](C)(N)C(=O)O; Aib = CC(C)(N)C(=O)O; ξP = O=C(O)C1CCCN1; βAla = NCCC(=O)O; X5 = OCN*

Take `O=C(CN1CCN(c2ccccn2)CC1)Nc1ccc(Cl)cc1C(=O)c1ccccc1Cl`: the GI50 is 14.3 µM in [1]; greater than 100 µM in test [2]; 10 µM in test [3]; greater than 100 µM in test [4]; 3.55 µM in test [5]; greater than 100 µM in test [6]. For the same molecule, the GI50 was greater than 100 µM in test [7], greater than 100 µM in test [8] and 6.63 µM in [9]. In addition, the TGI in test [1], in test [2], in [3], in test [4], in test [5] and in [6] was greater than 100 µM in each case. Further, the TGI in [7], in [8] and in test [9] was greater than 100 µM in each case.
As for `NC(N)=NC(N)=NCc1ccco1`, the GI50 is 340 µM and 325 µM in [1]; 758 µM in test [2]; 508 µM and 492 µM in test [3]; greater than 1250 µM in test [4]; 264 µM in [5]; greater than 1250 µM in [10]. Also, the GI50 in test [6], in [7] and in [8] was greater than 1250 µM throughout. Besides, the TGI in [1], in test [2], in test [3], in [4], in test [5] and in test [10] was greater than 1250 µM each time. In addition, the TGI in test [6], in [7] and in [8] was greater than 1250 µM throughout.
`O=C(N/N=C/c1cccc(O)c1)c1ccc(C(F)(F)F)nc1Nc1cccc(C(F)(F)F)c1`: the GI50 in [1] is 2.43 µM; in [2], 1.17 µM; in test [3], 1.93 µM; in [4] it was 1.86 µM; in test [5] it was 1.19 µM; in test [10] it was 1.08 µM. The GI50 in test [6] was 1.13 µM; in test [7], 1.04 µM; in test [8], 1.58 µM. Further, the TGI in [1] was 7.84 µM; in test [2] it was 3 µM; in [3] it was 5.69 µM; in test [4], 5.86 µM; in [5] it was 2.69 µM; in test [10] it was 3.02 µM. In addition, the TGI in [6] turned out to be 8.85 µM; in test [7], 6.13 µM; in test [8], 6.03 µM.
Take `C[C@H](CCCOS(C)(=O)=O)[C@H]1CC[C@H]2[C@@H]3CC[C@@H]4C[C@H](OS(C)(=O)=O)CC[C@]4(C)[C@H]3CC[C@]12C`: the GI50 in test [1] was 793 µM; in [2] it was 954 µM; in test [3] it was 532 µM; in test [4], 423 µM; in test [10], 503 µM; in [6], 367 µM. Besides, the GI50 in test [7] was 590 µM. The TGI in test [3] is 1240 µM; in [6], greater than 2500 µM.
Consider `CC[C@@](C)(NC(=O)[C@H](C)NC(=O)CCNC(=O)C(C)(C)NC(=O)[C@H](C)NC(=O)[C@@H]1CCCN1C(=O)[C@@](C)(CC)NC(=O)[C@H](Cc1ccccc1)NC(=O)C1CCCN1C(=O)C(C)(C)NC(=O)C1CCCN1C(=O)C(C)(C)NC(C)=O)C(=O)NCCC(=O)N[C@@H](CC(C)C)C(=O)NC(C)(C)C(=O)NCCC(=O)N[C@@H](CC(C)C)C(=O)NC(C)(C)C(=O)NC(C)(C)C(=O)N[C@@H](CC(C)C)C(=O)NCCC(=O)NCO` (stereo partly specified) (Ac-[Aib][ξP][Aib][ξP]F[dIva]PA[Aib][βAla]A[dIva][βAla]L[Aib][βAla]L[Aib][Aib]L[βAla]-X5), for which the GI50 in test [1] is 0.133 µM; in test [2] it was 0.231 µM; in test [3] it was 0.218 µM; in test [4] it was 0.248 µM; in [5] it was 0.0791 µM; in test [6] it was 0.221 µM. Also, the GI50 in test [7] was 0.143 µM; in [8], 0.0608 µM; in test [9] it was 0.272 µM. Moreover, the TGI in test [1] came to 0.351 µM; in [2], 0.448 µM; in [3], 0.431 µM; in [4] it was 0.642 µM; in test [5], 0.332 µM; in test [6], 0.436 µM. Besides, the TGI in test [7] was determined as 0.368 µM; in test [8] it was 0.307 µM; in test [9], 0.646 µM.
As to `COC(=O)C1=C(O)C(C(=O)OC)[C@@]2(O)[C@@H](C(=O)OC)C(c3ccccc3Cl)C[C@@H]1[C@@H]2C(=O)OC` (stereo partly specified), the GI50 is 9.04 µM in [1]; 3.47 µM in test [2]; 1.97 µM in [3]; 10.1 µM in [4]; 3.76 µM in [5]; 6.56 µM in test [10]. The GI50 was 4.37 µM in test [6] and 14.5 µM in test [7]. Besides, the TGI in test [1] is 53.9 µM; in [2], 11.2 µM; in [3], 4.12 µM; in [4], 43.7 µM; in [5], greater than 100 µM; in test [10] it was 20.7 µM. Further, the TGI came out at 35.4 µM in test [6] and 65.3 µM in [7].
Consider `Nc1nc(Cl)c2ncn(Cc3ccc(-c4ccc(CCl)cc4)cc3)c2n1`, for which the GI50 in [1] was 19.3 µM; in [2], 5.76 µM; in test [3], 6.71 µM; in test [4], 43.4 µM; in test [5], 13.9 µM; in test [6], 12.1 µM. Moreover, the results for the GI50 in test [7], in test [8] and in [9] were 16.2 µM, 10.3 µM and 3.09 µM, respectively. In addition, the TGI in test [1] was greater than 100 µM; in [2], 33.3 µM; in [3] it was 23.7 µM; in test [4], greater than 100 µM; in test [5], greater than 100 µM; in test [6] it was 54.4 µM. Besides, the TGI in [7] was 36.5 µM; in test [8], 28.1 µM; in [9] it was greater than 100 µM.
In the case of `COn1cc(C(=O)N=C(SC)SC)c2ccccc21`, the GI50 in test [1] was 23.9 µM; in test [2], 22.7 µM; in [4], 16.7 µM; in test [5] it was 2.29 µM; in [10], 17.5 µM; in [6] it was 25 µM. Moreover, the GI50 in test [7] is greater than 100 µM; in [8], 68.7 µM. Besides, the TGI in [1] is 87.6 µM; in [2], 63.8 µM; in test [4], 54.3 µM; in [5] it was 17.5 µM; in test [10], 51.3 µM; in test [6] it was 96.2 µM. The TGI in test [7] and in test [8] was greater than 100 µM each time.

The values above are taken from PubChem BioAssay (NCI).
